14 compounds from patent US20210315893A1 (Galapagos NV, priority 2017, published 2021) can be followed below.

A value given as a limit tells only on which side of the number the result lay.

In assay [1] the target is T1, human GPCR sphingosine 1-phosphate receptor 5 (Homo sapiens, UniProt Q9H228).
T1 construct: host or cells: CHO
Description: S1PR5 selectivity Ca2+ flux assay (antagonist readout). The conditions noted are these: CHO cells overexpressing human S1PR5 and Gq, agonist at EC80 (20 nM), read-out: S1P5 EC50 (nM), S1P5 antagonist EC50. The class given is cell-based. The source says:
To evaluate the selectivity of the compounds for S1PR2 over S1PR1 and S1PR5, asimilar assay set upas described above for theS1PR2 calcium flux assays waspeformed: CHO cells stably overexpressing human GPCR sphingosine 1-phosphate receptor 1 and Gq protein (Euroscreen, FAST-0197A) or overexpressing human GPCR sphingosine 1-phosphate receptorS5 and Gq protein were used (Perkin Elmer, ES-593-A). In case of the S1PR5 assay triggering was done with an SPR5 specific agonist instead of with S1P (Hobson et al., 2015).
50 μL of Chinese hamster ovary (CHO) cells stably overexpressing human S1PR1 or S1PR5 are seeded in 384 well sterile microplates (7,500 cells/well or 10,000 cells/well respectively) and are incubated overnight at 37° C. under 5% CO2. Cells are subsequently washed twice with 25 μL/well of starvation medium (F-12 Ham's medium containing 0.1% fatty acid free bovine serum albumin (FAF BSA)). After one h starvation at 37° C., 5% CO2, cells are loaded with 25 μL of Fluo 8 dye diluted in Hank's balanced salt solution (HBSS) with 20 mM Hepes complemented with 5 mM of probenecid following the recommendations of the manufacturer (one h at 37° C., 5% CO2). Dilution series of compounds are prepared in HBSS buffer with 20 mM Hepes and 0.1% BSA (FAF). 10 μL of diluted compound is added to the cells using the FDSS/pCELL and intracellular calcium changes are measured immediately by recording fluorescence during 3 min (agonist readout). The ratio of maximal signal over background before compound injection is used to determine compound response.
After an incubation of 15 min at 37° C., following the agonist readout, the plates are transferred to the FDSS/pCELL reader. Cells are stimulated with 10 μL of EC80 concentration of S1P (6 nM for S1P1 and 20 nM for S1P5) and intracellular calcium changes are measured immediately by recording fluorescence during three min (antagonist readout). The ratio of maximal signal over background before S1P injection was used to determine the inhibitory effect ofthe compound.
Raw data obtained in each experiment (ratio of maximal signal over background for calcium mobilization assays) were normalized in percentage of activation (agonist mode) or inhibition (antagonist mode) using positive and negative experiment controls. Each individual plate quality was assessed by evaluation of Z′ factor calculated with raw data using the following equation
Y=bottom+(top−bottom)/(1+(10^(Log IC50−X)*Hillslope)) where X is the logarithm of the concentration of the compound
On the technique in general: Calcium assays in cells follow changes in intracellular calcium, usually with a dye or a luminescent sensor.

Assay [2] relates to HFL-1 cells. Description: IL8 assay in the presence of Human Serum Albumin. The conditions noted are these: HFL1, read-out: HSA IL8 EC50.
Description: To evaluate the influence of plasma protein binding of S1P as well as compound, the S1P induced IL-8 levelswereevaluatedin presence of Human Serum Albumin (HSA, equivalent to 40% human serum).
Human Fetal Lung cells (HFL-1) are seeded in 96 well plates in growth medium (F12K+10% heat inactivated FBS+1% Pen/strep). […] On day three, compounds are added (10 point serial dilution, 30 μM highest concentration, 1/3 dilution, 0.3% DMSO final) and plates are incubated for 1 h at 37° C., 5% CO2. Subsequently S1P at 5 μM final concentration is added and plates are incubated for 16 to 24 h at 37° C., 5% COafter which the supernatant was collected. IL-8 levels in the supernatant are determined with the IL-8 ELISA of R&D systems.
The target in assay [3] is T2, human GPCR sphingosine 1-phosphate receptor 2 (Homo sapiens, UniProt O95136).
T2 construct: host or cells: CHO
Description: S1PR2 antagonist Ca2+ flux assay. The conditions noted are these: antagonist mode, CHO-S1PR2 cells, S1P at EC80, Ca2+ fluorescence; read-out: S1P2 EC50 (nM), S1P2 antagonist EC50. The class given is cell-based. The method in brief:
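Antagonist mode: 15 min after compound addition, S1P (EC80) stimulates Fluo8-loaded, 1 h-starved CHO-S1PR2 cells, Ca2+ read over 3 min; a prior 3-min read checks compound agonism. EC50 from peak/baseline fluorescence ratio, normalised versus vehicle and S1P EC50 (antagonist) or EC100 (agonist).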

The target in assay [4] is T3, human GPCR sphingosine 1-phosphate receptor 1 (Homo sapiens, UniProt P21453).
T3 construct: host or cells: CHO
In words: S1PR1 selectivity Ca2+ flux assay (antagonist readout). It is filed as cell-based. The conditions noted are these: antagonist readout, CHO cells overexpressing human S1PR1 and Gq, S1P at EC80 (6 nM); read-out: S1P1 EC50 (nM), S1P1 antagonist EC50. In a few lines: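 Antagonist mode: S1P challenge follows 15 min compound preincubation at 37 °C. Cells are CHO stably expressing human S1PR1, serum-starved 1 h (0.1% FAF BSA), loaded with Fluo 8. Peak-over-baseline fluorescence ratio is normalized to positive/negative controls; IC50 from logistic curve fit.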

Assay [5] relates to HFL-1 cells. Description: IL-8 production assay (S1P induced IL-8). The class given is cell-based. The conditions noted are these: Homo sapiens, HFL1; S1P (1 μM) induced IL-8 in HFL-1 cells, starvation medium without HSA; read-out: IL8 EC50. In a few lines:
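HFL-1 fibroblasts in low-serum medium were pretreated 1 h with a 10-point 1/3 series of compound starting at 30 μM (0.3% DMSO).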

Assay [6] addresses T4, S1PR2 (Homo sapiens, UniProt O95136).
T4 construct: expressed in transfected cells
Description: S1PR2 binding assay (competition with radioactively labeled S1P, SpA). The conditions noted are these: membranes from stable cell line over expressing S1PR2, SpA beads; read-out: S1P2 EC50 (nM), S1PR2 binding EC50. The method in brief:
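Scintillation proximity read-out after 2 h room-temperature incubation of compound, [3H]S1P and S1PR2-overexpressing cell membranes on WGA-coated beads. Buffer: 20 mM Tris pH 7.5, 100 mM NaCl, 10 mM MgCl2, 1 mM Na3VO4, 0.4% fatty-acid-free BSA; plates counted immediately after centrifugation.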

T2 sequence (O95136 whole entry): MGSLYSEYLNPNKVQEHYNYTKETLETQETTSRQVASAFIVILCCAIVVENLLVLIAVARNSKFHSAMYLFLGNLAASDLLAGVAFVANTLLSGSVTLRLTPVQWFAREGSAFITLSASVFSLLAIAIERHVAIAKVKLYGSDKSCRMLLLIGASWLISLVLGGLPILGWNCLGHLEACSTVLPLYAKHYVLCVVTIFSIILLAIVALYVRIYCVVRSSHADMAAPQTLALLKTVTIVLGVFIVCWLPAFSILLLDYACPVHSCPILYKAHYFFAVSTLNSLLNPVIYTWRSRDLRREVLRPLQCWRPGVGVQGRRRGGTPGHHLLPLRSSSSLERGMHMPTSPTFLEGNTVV
T4 sequence (O95136 whole entry): as above
T3 sequence (P21453 whole entry): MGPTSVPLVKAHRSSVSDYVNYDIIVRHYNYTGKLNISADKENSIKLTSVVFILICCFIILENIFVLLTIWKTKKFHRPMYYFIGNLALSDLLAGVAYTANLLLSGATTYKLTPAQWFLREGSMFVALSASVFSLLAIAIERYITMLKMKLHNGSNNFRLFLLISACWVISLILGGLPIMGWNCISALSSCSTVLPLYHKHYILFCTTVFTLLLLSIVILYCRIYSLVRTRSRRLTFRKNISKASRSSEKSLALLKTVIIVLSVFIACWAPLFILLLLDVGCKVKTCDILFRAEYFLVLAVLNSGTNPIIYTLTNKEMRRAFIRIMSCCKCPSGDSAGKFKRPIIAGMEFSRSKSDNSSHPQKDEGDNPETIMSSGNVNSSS
T1 sequence (Q9H228 whole entry): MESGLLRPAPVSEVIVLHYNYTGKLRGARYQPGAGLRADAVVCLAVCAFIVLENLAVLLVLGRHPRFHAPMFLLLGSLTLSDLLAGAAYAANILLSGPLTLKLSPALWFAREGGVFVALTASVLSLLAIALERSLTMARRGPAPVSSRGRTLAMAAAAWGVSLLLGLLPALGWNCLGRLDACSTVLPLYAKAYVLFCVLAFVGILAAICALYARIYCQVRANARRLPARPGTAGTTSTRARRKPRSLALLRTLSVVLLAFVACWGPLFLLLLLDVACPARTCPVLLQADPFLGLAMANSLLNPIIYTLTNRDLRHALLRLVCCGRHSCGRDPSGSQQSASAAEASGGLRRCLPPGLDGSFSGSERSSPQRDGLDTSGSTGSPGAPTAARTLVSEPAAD

Take `COCCOc1cc2nc(Cc3nn(C4CCNC4)c(=O)c4ccccc34)[nH]c2cc1C#N` (stereo not shown) [Compound 65, 6-(2-methoxyethoxy)-2-[(4-oxo-3-pyrrolidin-3-yl-phthalazin-1-yl)methyl]-3H-benzimidazole-5-carbonitrile]: the EC50 (in general, the concentration that produces a half-maximal response) was 19800 nM in assay [1]; 91.1 nM in assay [2]; 2080 nM in assay [3]; at least 19800 nM in assay [4]; 108 nM in assay [5]; 1030 nM in assay [6].

Regarding `CC(C)(C)NC(=O)Cn1nc(Cn2cc3cc(OCC4CC4)c(Cl)cc3n2)c2ccccc2c1=O` [Compound 144, N-tert-butyl-2-[4-[[6-chloro-5-(cyclopropylmethoxy)indazol-2-yl]methyl]-1-oxo-phthalazin-2-yl]acetamide], the EC50 in assay [1] was 19800 nM; in assay [2], 3400 nM; in assay [3], 191 nM; in assay [4], at least 19800 nM; in assay [5] it was 511 nM; in assay [6], 226 nM.

Consider `O=C(O)Cn1nc(Cc2nc3cc(Cl)c(OCC4CC4)c(F)c3[nH]2)c2ccccc2c1=O` [Compound 116, 2-[4-[[5-chloro-6-(cyclopropylmethoxy)-7-fluoro-1H-benzimidazol-2-yl]methyl]-1-oxo-phthalazin-2-yl]acetic acid], for which the EC50 in assay [1] was 19900 nM; in assay [2], 566 nM; in assay [3], 25.2 nM; in assay [4], at least 19800 nM; in assay [5] it was 77.8 nM; in assay [6] it was 183 nM.

As for `N#Cc1cc2[nH]c(Cc3nn(CC(=O)NC4CCOC4)c(=O)c4ccccc34)nc2cc1OCC(F)F` (stereo not shown) [Compound 178, 2-[4-[[6-cyano-5-(2,2-difluoroethoxy)-1H-benzimidazol-2-yl]methyl]-1-oxo-phthalazin-2-yl]-N-THF-3-yl-acetamide], the EC50 in assay [1] was 19800 nM; in assay [2], 504 nM; in assay [3] it was 118 nM; in assay [4] it was at least 19800 nM; in assay [5], 160 nM; in assay [6], 188 nM.

As to `N#Cc1cc2[nH]c(Cc3nn(CC(=O)N4CCN(CC5CC5)CC4)c(=O)c4ccccc34)nc2cc1OCC(F)F` [Compound 218, 2-[[3-[2-[4-(cyclopropylmethyl)piperazin-1-yl]-2-oxo-ethyl]-4-oxo-phthalazin-1-yl]methyl]-6-(2,2-difluoroethoxy)-3H-benzimidazole-5-carbonitrile], the EC50 in assay [1] was 19800 nM; in assay [2] it was 15200 nM; in assay [3] it was 1410 nM; in assay [4], at least 19800 nM; in assay [5] it was 151 nM; in assay [6] it was 526 nM.

Turning to `C[C@@H]1CN(C(=O)Cn2nc(Cc3nc4cc(OCC(F)F)c(C#N)cc4[nH]3)c3ccccc3c2=O)C[C@H](C)O1` [Compound 177, 6-(2,2-difluoroethoxy)-2-[[3-[2-[(2S,6R)-2,6-dimethylmorpholin-4-yl]-2-oxo-ethyl)-4-oxo-phthalazin-1-yl]methyl]-3H-benzimidazole-5-carbonitrile], the concentration for a half-maximal effect (EC50) was 19800 nM in assay [1]; 120 nM in assay [2]; 57.1 nM in assay [3]; at least 19800 nM in assay [4]; 18.6 nM in assay [5]; 124 nM in assay [6].

Regarding `C[C@H](C(=O)O)c1nn(Cc2cn3cc(OCC4CC4)c(Cl)cc3n2)c2ccccc2c1=O` [compound 19, (2S)-2-[1-[[7-chloro-6-(cyclo-propylmethoxy)-imidazo[1,2-a]-pyridin-2-yl]-methyl]-4-oxo-cinnolin-3-yl]-propanoic acid], the EC50 in assay [1] is 19900 nM; in assay [2], 18.2 nM; in assay [4] it was 19900 nM; in assay [5], 1.29 nM.

For the compound `O=C(O)Cc1nn(Cc2cn3cc(OCC4CC4)c(Cl)cc3n2)c2ccccc2c1=O` [Compound 89, 2-[1-[[7-chloro-6-(cyclopropylmethoxy)imidazo[1,2-a]pyridin-2-yl]methyl]-4-oxo-cinnolin-3-yl]acetic acid], the EC50 in assay [1] was 6610 nM; in assay [2] it was 64.5 nM; in assay [4] it was at least 19800 nM; in assay [5], 5.7 nM.

In the case of `O=C(O)Cn1nc(Cc2nc3cc(OCC4CC4)c(C(F)(F)F)cc3[nH]2)c2ccccc2c1=O` [Compound 123, 2-[4-[[5-(cyclopropylmethoxy)-6-(trifluoromethyl)-1H-benzimidazol-2-yl]methyl]-1-oxo-phthalazin-2-yl]acetic acid], the EC50 in assay [1] turned out to be 19800 nM; in assay [2], 25.9 nM; in assay [4], 1840 nM; in assay [5], 1.76 nM.

For `O=C(O)Cn1nc(Cc2cn3cc(OCC4CC4)c(Cl)cc3n2)c2ccccc2c1=O` [Compound 82, 2-[4-[[7-chloro-6-(cyclopropylmethoxy)imidazo[1,2-a]pyridin-2-yl]methyl]-1-oxo-phthalazin-2-yl]acetic acid], the EC50 is 4380 nM in assay [1], 390 nM in assay [2], at least 19800 nM in assay [4] and 9.96 nM in assay [5].

Take `O=C(O)Cn1nc(Cn2cc3cc(OCC4CC4)c(Cl)cc3n2)c2ccccc2c1=O` [Compound 114, 2-[4-[[6-chloro-5-(cyclopropylmethoxy)indazol-2-yl]methyl]-1-oxo-phthalazin-2-yl]acetic acid]: the EC50 in assay [1] was 627 nM; in assay [2], 1660 nM; in assay [4], at least 19900 nM; in assay [5], 32.4 nM.

For `N#Cc1cc2nc(Cc3nn(CC(=O)N4CCOCC4)c(=O)c4ccccc34)[nH]c2cc1OCC(F)F` [Compound 171, 6-(2,2-difluoroethoxy)-2-[[3-(2-morpholino-2-oxo-ethyl)-4-oxo-phthalazin-1-yl]methyl]-1H-benzimidazole-5-carbonitrile], the EC50 in assay [1] was 19800 nM; in assay [2], 44.9 nM; in assay [3] it was 30 nM; in assay [4], at least 19800 nM; in assay [5], 23.1 nM.

On to `N#Cc1cc2[nH]c(Cc3nn(CC4CCCN4)c(=O)c4ccccc34)nc2cc1OCC(F)F` (stereo not shown) [compound 1, 6-(2,2-difluoro-ethoxy)-2-[[4-oxo-3-(pyrrolidin-2-ylmethyl)-phthalazin-1-yl]-methyl]-3H-benzimidazole-5-carbonitrile], for which the EC50 in assay [1] was 19800 nM; in assay [2], 15600 nM; in assay [4], at least 19800 nM; in assay [5] it was 3320 nM; in assay [6], 3930 nM.

As for `COC(C(=O)O)c1nn(Cc2cn3cc(OCC4CC4)c(Cl)cc3n2)c2ccccc2c1=O` (stereo not shown) [Compound 94, 2-[1-[[7-chloro-6-(cyclopropylmethoxy)imidazo[1,2-a]pyridin-2-yl]methyl]-4-oxo-cinnolin-3-yl]-2-methoxy-acetic acid], the EC50 was 19800 nM in assay [1], 267 nM in assay [2], at least 19800 nM in assay [4] and 105 nM in assay [5].
